The values that follow are results of earlier work, collected in patent publication US20140275235A1, “Treatment of Proliferative Disorders” (priority 2013, published 2014).

The conditions of this data set: literature refs 11, 12.

SMILES strings stand for the structures. Where only a bound is given, the exact number is not on record here.

As to `C[S+]([O-])CCCCN=C=S` (centres unmarked) [SFN, sulforaphane], the Bioavailability is listed as 80% and the “Time to peak plasma levels” value is at most 2 h.
